Test results from PubChem BioAssay AID1918994 (Molecular Pharmacology Branch, DTP, NCI, 2023).
Several values for one entry are separate records, joined by “and”; a condition that tells them apart may be missing. Identical values can stand only once.

Tested on: 292921-168-R-J2-PDC complex spheroid growth
Experiment: Anticancer human tumor 292921-168-R-J2-PDC patient-derived pancreatic carcinoma cell line growth inhibition [AhR]
Settings: for viability, T/C: stronger effect = lower value; active = viability on the fitted dose curve at most 10% of control; inactive = the rest
In short: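 Agents were dosed in half-log steps down from roughly clinical Cmax, or from 10 microM where Cmax was unknown, alone and with AhR antagonists. Read-out: percent test/control growth of tumor spheroids containing HUVEC and MSC stromal cells.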

[1] = curve of first compound, second compound 0.1 µM
[2] = curve of first compound, second compound 0.316 µM
[3] = curve of first compound, second compound 1 µM
[4] = curve of first compound, second compound 3.16 µM
[5] = curve of first compound, second compound 10 µM
[6] = second compound 0.1 µM, first compound 0.00949 µM
[7] = second compound 0.1 µM, first compound 0.03 µM
[8] = second compound 0.1 µM, first compound 0.0949 µM
[9] = second compound 0.1 µM, first compound 0.3 µM
[10] = second compound 0.316 µM, first compound 0.00949 µM
[11] = second compound 0.316 µM, first compound 0.03 µM
[12] = second compound 0.316 µM, first compound 0.0949 µM
[13] = second compound 0.316 µM, first compound 0.3 µM
[14] = second compound 1 µM, first compound 0.00949 µM
[15] = second compound 1 µM, first compound 0.03 µM
[16] = second compound 1 µM, first compound 0.0949 µM
[17] = second compound 1 µM, first compound 0.3 µM
[18] = second compound 3.16 µM, first compound 0.00949 µM
[19] = second compound 3.16 µM, first compound 0.03 µM
[20] = second compound 3.16 µM, first compound 0.0949 µM
[21] = second compound 3.16 µM, first compound 0.3 µM
[22] = second compound 10 µM, first compound 0.00949 µM
[23] = second compound 10 µM, first compound 0.03 µM
[24] = second compound 10 µM, first compound 0.0949 µM
[25] = second compound 10 µM, first compound 0.3 µM
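Also: spheroids exposed to compounds for seven days after three days of growth.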

O=C(C=Cn1cnc(-c2cc(C(F)(F)F)cc(C(F)(F)F)c2)n1)NNc1cnccn1 + Cc1ccccc1N=Nc1ccc(NC(=O)c2ccnn2C)c(C)c1
115 nM: IC50 [3]
126 nM: IC50 [2]
active: viability, T/C (second compound 0.316 µM, first compound 3 µM) 9.51% | viability, T/C (second compound 1 µM, first compound 3 µM) 9.8% | viability, T/C (second compound 3.16 µM, first compound 3 µM) 8.58% | viability, T/C (second compound 10 µM, first compound 3 µM) 9.82%
76.4 nM: IC50 [4]
194 nM: IC50 [1]
29.1 nM: IC50 [5]
inactive: viability, T/C [6] 88.1% | viability, T/C [7] 84.6% | viability, T/C [8] 75.5% | viability, T/C [9] 34.5% | viability, T/C (second compound 0.1 µM, first compound 0.949 µM) 16% | viability, T/C (second compound 0.1 µM, first compound 3 µM) 12% | viability, T/C [10] 95.8% | viability, T/C [11] 77.9% | viability, T/C [12] 58.1% | viability, T/C [13] 31% | viability, T/C (second compound 0.316 µM, first compound 0.949 µM) 14.9% | viability, T/C [14] 78.1% | viability, T/C [15] 61.8% | viability, T/C [16] 57.9% | viability, T/C [17] 30.6% | viability, T/C (second compound 1 µM, first compound 0.949 µM) 13% | viability, T/C [18] 79.2% | viability, T/C [19] 64% | viability, T/C [20] 48.2% | viability, T/C [21] 26.4% | viability, T/C (second compound 3.16 µM, first compound 0.949 µM) 15.2% | viability, T/C [22] 59.8% | viability, T/C [23] 50.8% | viability, T/C [24] 37.1% | viability, T/C [25] 29.1% | viability, T/C (second compound 10 µM, first compound 0.949 µM) 18%

CC1(C)CCC(CN2CCN(c3ccc(C(=O)NS(=O)(=O)c4ccc(NCC5CCOCC5)c([N+](=O)[O-])c4)c(Oc4cnc5[nH]ccc5c4)c3)CC2)=C(c2ccc(Cl)cc2)C1 + CC(CO)NC(=O)c1cc(-c2ccc(Cl)cc2)nn(-c2cnn(C)c2)c1=O
6810 nM: IC50 [3]
4310 nM: IC50 [5]
6330 nM: IC50 [2]
inactive: viability, T/C (second compound 0.1 µM, first compound 0.0316 µM) 103% | viability, T/C (second compound 0.1 µM, first compound 0.1 µM) 101% | viability, T/C (second compound 0.1 µM, first compound 0.316 µM) 108% | viability, T/C (second compound 0.1 µM, first compound 1 µM) 103% | viability, T/C (second compound 0.1 µM, first compound 3.16 µM) 91.1% | viability, T/C (second compound 0.1 µM, first compound 10 µM) 20.7% | viability, T/C (second compound 0.316 µM, first compound 0.0316 µM) 105% | viability, T/C (second compound 0.316 µM, first compound 0.1 µM) 98.7% | viability, T/C (second compound 0.316 µM, first compound 0.316 µM) 106% | viability, T/C (second compound 0.316 µM, first compound 1 µM) 95.6% | viability, T/C (second compound 0.316 µM, first compound 3.16 µM) 97.5% | viability, T/C (second compound 0.316 µM, first compound 10 µM) 18.8% | viability, T/C (second compound 1 µM, first compound 0.0316 µM) 96.7% | viability, T/C (second compound 1 µM, first compound 0.1 µM) 94.9% | viability, T/C (second compound 1 µM, first compound 0.316 µM) 102% | viability, T/C (second compound 1 µM, first compound 1 µM) 98.2% | viability, T/C (second compound 1 µM, first compound 3.16 µM) 101% | viability, T/C (second compound 1 µM, first compound 10 µM) 25.6% | viability, T/C (second compound 3.16 µM, first compound 0.0316 µM) 92.9% | viability, T/C (second compound 3.16 µM, first compound 0.1 µM) 87.4% | viability, T/C (second compound 3.16 µM, first compound 0.316 µM) 93.3% | viability, T/C (second compound 3.16 µM, first compound 1 µM) 96.7% | viability, T/C (second compound 3.16 µM, first compound 3.16 µM) 83.8% | viability, T/C (second compound 3.16 µM, first compound 10 µM) 18.5% | viability, T/C (second compound 10 µM, first compound 0.0316 µM) 67.8% | viability, T/C (second compound 10 µM, first compound 0.1 µM) 70.7% | viability, T/C (second compound 10 µM, first compound 0.316 µM) 71.6% | viability, T/C (second compound 10 µM, first compound 1 µM) 72.5% | viability, T/C (second compound 10 µM, first compound 3.16 µM) 62.2% | viability, T/C (second compound 10 µM, first compound 10 µM) 16%
5750 nM: IC50 [4]
6190 nM: IC50 [1]

CCc1c2c(nc3ccc(O)cc13)-c1cc3c(c(=O)n1C2)COC(=O)[C@]3(O)CC
12.2% and 9.77% and 13%: viability, T/C (compound 0.03 µM)
3.42 nM and 4.29 nM and 1.79 nM: IC50 (curve of compound)
active: viability, T/C (compound 0.0949 µM) 6.69% and 4.55% and 7% | viability, T/C (compound 0.3 µM) 3.7% and 2.95% and 3.56%
inactive: viability, T/C (compound 0.000949 µM) 72.1% and 79.3% and 54.5% | viability, T/C (compound 0.003 µM) 53.6% and 63.4% and 47.4% | viability, T/C (compound 0.00949 µM) 25.5% and 20.2% and 23.6%

CC(C)CC(NC(=O)C(Cc1ccccc1)NC(=O)c1cnccn1)B(O)O (configuration not stated) + Cc1cncc(-c2nc(NCCc3c[nH]c4ccccc34)c3ncn(C(C)C)c3n2)c1
9.14 nM: IC50 [3]
active: viability, T/C [7] 3.12% | viability, T/C [8] 0.7% | viability, T/C [9] 0.59% | viability, T/C [11] 3.84% | viability, T/C [12] 0.68% | viability, T/C [13] 0.47% | viability, T/C [15] 3.35% | viability, T/C [16] 0.56% | viability, T/C [17] 0.95% | viability, T/C [19] 1.9% | viability, T/C [20] 0.89% | viability, T/C [21] 1.05% | viability, T/C [23] 0.58% | viability, T/C [24] 0.63% | viability, T/C [25] 0.51%
inactive: viability, T/C (second compound 0.1 µM, first compound 0.000949 µM) 92.8% | viability, T/C (second compound 0.1 µM, first compound 0.003 µM) 109% | viability, T/C [6] 51.3% | viability, T/C (second compound 0.316 µM, first compound 0.000949 µM) 89.7% | viability, T/C (second compound 0.316 µM, first compound 0.003 µM) 99.3% | viability, T/C [10] 51.5% | viability, T/C (second compound 1 µM, first compound 0.000949 µM) 82.3% | viability, T/C (second compound 1 µM, first compound 0.003 µM) 95.5% | viability, T/C [14] 48.7% | viability, T/C (second compound 3.16 µM, first compound 0.000949 µM) 62.3% | viability, T/C (second compound 3.16 µM, first compound 0.003 µM) 77% | viability, T/C [18] 41.6% | viability, T/C (second compound 10 µM, first compound 0.000949 µM) 43.5% | viability, T/C (second compound 10 µM, first compound 0.003 µM) 53.7% | viability, T/C [22] 19.6%
< 0.949 nM: IC50 [5]
6.72 nM: IC50 [4]
9.81 nM: IC50 [2]
9.77 nM: IC50 [1]
